Reference: patent US8461107B2 (Merck Sharp & Dohme Corp., priority 2008, dated 2013)

Target: T1, HCV genotype 1b (BK) NS3 modified with a R155K mutation (Hepatitis C virus genotype 1b, UniProt P26663, R1181K)
T1 construct: HCV genotype 1b (BK) NS3 modified with a R155K mutation
Test: HCV NS3 protease time-resolved fluorescence (TRF) assay, NS3 protease 1b R155K Ki activity
Assay type: biochemical
Settings: HCV genotype 1b (BK) NS3 with R155K mutation; TRF peptide substrate 100 nM; Ki derived from IC50
Experimental: The HCV NS3 protease inhibitory activity of the present compounds may be tested using assays known in the art. One such assay is HCV NS3 protease time-resolved fluorescence (TRF) assay as described below and in International Patent Application Publication WO 2006/102087. Other examples of such assays are described in e.g., International Patent Application Publication WO 2005/046712.
A NS3 protease assay can be performed, for example, in a final volume of 100 μl assay buffer containing 50 mM HEPES, pH 7.5, 150 mM NaCl, 15% glycerol, 0.15% TRITON X-100, 10 mM DTT, and 0.1% PEG 8000. NS3 and NS4A protease is pre-incubated with various concentrations of inhibitors in DMSO for 30 minutes. The reaction is initiated by adding the TRF peptide substrate (final concentration 100 nM). NS3 mediated hydrolysis of the substrate is quenched after 1 hour at room temperature with 100 μl of 500 mM MES, pH 5.5. Product fluorescence is detected using either a VICTOR V2 or FUSION fluorophotometer (Perkin Elmer Life and Analytical Sciences) with excitation at 340 nm and emission at 615 nm with a 400 μs delay. Testing concentrations of different enzyme forms are selected to result in a signal to background ratio (S/B) of 10-30. IC50 values are derived using a standard four-parameter fit to the data. Ki values are derived from IC50 values using the following formula, IC50=Ki(1+[S]/KM), Eqn (1), where [S] is the concentration of substrate peptide in the reaction and KM is the Michaelis constant. See P. Gallinari et al., 38 BIOCHEM. 5620-32 (1999); P. Gallinari et al., 72 J. VIROL. 6758-69 (1998); M. Taliani et al., 240 ANAL. BIOCHEM. 60-67 (1996).
The HCV NS3 protease inhibitory activity was measured using the protease time-resolved fluorescence (TRF) assay as described below and in International Patent Application Publication WO 2006/102087. The assay was performed with HCV genotype 1b (BK) NS3 modified with a R155K mutation.
The assay was performed in a final volume of 100 μl in assay buffer containing 50 mM HEPES, pH 7.5, 150 mM NaCl, 15% glycerol, 0.15% TRITON X-100, 10 mM DTT, and 0.1% PEG 8000. NS3 and NS4A protease is pre-incubated with various concentrations of inhibitors in DMSO for 30 minutes. The reaction is initiated by adding the TRF peptide substrate (final concentration 100 nM). NS3 mediated hydrolysis of the substrate is quenched after 1 hour at room temperature with 100 μl of 500 mM MES, pH 5.5. Product fluorescence is detected using either a VICTOR V2 or FUSION fluorophotometer (Perkin Elmer Life and Analytical Sciences) with excitation at 340 nm and emission at 615 nm with a 400 μs delay. Testing concentrations of the enzyme containing the R155K mutation were selected to result in a signal to background ratio (S/B) of 10-30. IC50 values are derived using a standard four-parameter fit to the data. Ki values are derived from IC50 values using the following formula, IC50=Ki(1+[S]/KM), Eqn (1), where [S] is the concentration of substrate peptide in the reaction and KM is the Michaelis constant. See P. Gallinari et al., 38 BIOCHEM. 5620-32 (1999); P. Gallinari et al., 72 J. VIROL. 6758-69 (1998); M. Taliani et al., 240 ANAL. BIOCHEM. 60-67 (1996).

SMILES: C=C[C@@H]1C[C@]1(NC(=O)[C@@H]1C[C@@H]2CN1C(=O)[C@H](C1CCCC1)NC(=O)O[C@@H]1CCC[C@H]1C/C=C/Cn1c(cc3ccccc3c1=O)O2)C(=O)NS(=O)(=O)C1CC1
- Ki: 0.1 to 0.5 nM

SMILES: C=C[C@@H]1C[C@]1(NC(=O)[C@@H]1C[C@@H]2CN1C(=O)[C@H](C1CCCC1)NC(=O)O[C@@H]1CCC[C@H]1CC1CC1CCn1c(cc3cc(Cl)ccc3c1=O)O2)C(=O)NS(=O)(=O)C1CC1 (some centres unmarked)
- Ki: 0.1 to 0.5 nM

SMILES: C=C[C@@H]1C[C@]1(NC(=O)[C@@H]1C[C@@H]2CN1C(=O)[C@H](C1CCCC1)NC(=O)O[C@@H]1CCC[C@H]1CCCC1CC1Cn1c(cc3ccccc3c1=O)O2)C(=O)NS(=O)(=O)C1CC1 (some centres unmarked)
- Ki: 0.5 to 1 nM

SMILES: CC[C@@H]1C[C@]1(NC(=O)[C@@H]1C[C@@H]2CN1C(=O)[C@H](C1CCCC1)NC(=O)O[C@@H]1CCC[C@H]1CC/C=C/Cn1c(nc3cc(C)ccc3c1=O)O2)C(=O)NS(=O)(=O)C1CC1 [(1R,14E,18S,22R,26S,29S)-26-cyclopentyl-N-((1R,2R)-1-{[(cyclopropylsulfonyl)amino]carbonyl}-2-ethylcyclopropyl)-7-methyl-11,24,27-trioxo-2,23-dioxa-4,12,25,28-tetraazapentacyclo[26.2.1.0^3,12.0^5,10.0^18,22]hentriaconta-3,5,7,9,14-pentaene-29-carboxamide]
- Ki: 0.1 to 0.5 nM

SMILES: C=C[C@@H]1C[C@]1(NC(=O)[C@@H]1C[C@@H]2CN1C(=O)[C@H](C1CCCC1)NC(=O)O[C@@H]1CCC[C@H]1CCCCCn1c(ccc(Br)c1=O)O2)C(=O)NS(=O)(=O)C1CC1 [(1R,14R,18R,22S,25S)-6-bromo-22-cyclopentyl-N-((1R,2S)-1-{[(cyclopropylsulfonyl)amino]carbonyl}-2-vinylcyclopropyl)-7,20,23-trioxo-2,19-dioxa-8,21,24-triazatetracyclo[22.2.1.0^3,8.0^14,18]heptacosa-3,5-diene-25-carboxamide]
- Ki: 0.1 to 0.5 nM

SMILES: C=C[C@@H]1C[C@]1(NC(=O)[C@@H]1C[C@@H]2CN1C(=O)[C@H](C1CCCC1)NC(=O)O[C@@H]1CCC[C@H]1CCCCCn1c(cccc1=O)O2)C(=O)NS(=O)(=O)C1CC1 [(1R,14R,18R,22S,25S)-22-cyclopentyl-N-((1R,2S)-1-{[(cyclopropylsulfonyl)amino]carbonyl}-2-vinylcyclopropyl)-7,20,23-trioxo-2,19-dioxa-8,21,24-triazatetracyclo[22.2.1.0^3,8.0^14,18]heptacosa-3,5-diene-25-carboxamide]
- Ki: 0.1 to 0.5 nM

SMILES: C=C[C@@H]1C[C@]1(NC(=O)[C@@H]1C[C@@H]2CN1C(=O)[C@H](C1CCCC1)NC(=O)O[C@@H]1CCC[C@H]1CCCCCn1c(ccc(-c3ccccc3)c1=O)O2)C(=O)NS(=O)(=O)C1CC1 [(1R,14R,18R,22S,25S)-22-cyclopentyl-N-((1R,2S)-1-{[(cyclopropylsulfonyl)amino]carbonyl}-2-vinylcyclopropyl)-7,20,23-trioxo-6-phenyl-2,19-dioxa-8,21,24-triazatetracyclo[22.2.1.0^3,8.0^14,18]heptacosa-3,5-diene-25-carboxamide]
- Ki: 0.1 to 0.5 nM

SMILES: C=C[C@@H]1C[C@]1(NC(=O)[C@@H]1C[C@@H]2CN1C(=O)[C@H](C1CCCC1)NC(=O)O[C@@H]1CCC[C@H]1CCCCCn1c(nc3cc(Cl)ccc3c1=O)O2)C(=O)NS(=O)(=O)C1(C)CC1 [(1R,18R,22R,26S,29S)-7-chloro-26-cyclopentyl-N-[(1R,2S)-1-({[(1-methylcyclopropyl)sulfonyl]amino}carbonyl)-2-vinylcyclopropyl]-11,24,27-trioxo-2,23-dioxa-4,12,25,28-tetraazapentacyclo[26.2.1.0^3,12.0^5,10.0^18,22]hentriaconta-3,5,7,9-tetraene-29-carboxamide]
- Ki: < 0.1 nM
